# Results published in patent US20230027929A1, “MrgprX2 Antagonists and Uses Thereof” (Dermira, Inc., priority 2019, published 2023).
# Biological target: T1, hMrgpMRGPRX2 (Homo sapiens, UniProt Q96LB1)
# T1 construct: expressed in transfected cells
# T1 sequence (Q96LB1 1-330): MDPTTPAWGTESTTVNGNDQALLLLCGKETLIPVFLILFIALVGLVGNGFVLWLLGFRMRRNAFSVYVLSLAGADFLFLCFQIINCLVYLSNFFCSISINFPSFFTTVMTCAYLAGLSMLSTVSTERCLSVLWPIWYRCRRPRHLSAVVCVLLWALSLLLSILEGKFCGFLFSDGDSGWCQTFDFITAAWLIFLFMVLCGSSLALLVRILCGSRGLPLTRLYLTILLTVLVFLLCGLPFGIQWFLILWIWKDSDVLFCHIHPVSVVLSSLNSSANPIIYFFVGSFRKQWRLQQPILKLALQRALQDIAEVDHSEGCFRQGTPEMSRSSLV
# Test: FLIPR intracellular calcium mobilization, antagonist activity in recombinant hMrgpMRGPRX2 expressing cells
# Format: cell-based
# Conditions: read-out: Human MrgprX2 Antagonist pIC50 (converted)
# From the text: Potent and selective hMrgpMRGPRX2 compounds have been generated from compounds identified during a high throughput screening (HTS) campaign and followed up with cycles of structure activity based medicinal chemistry efforts. These compounds were characterized in recombinant hMrgpMRGPRX2 expressing cells for their antagonist activity and the potency was confirmed in the human mast cell line LAD-2, where the target is endogenously expressed. The assays used to determine potencies are functional read-out looking at intracellular calcium mobilization using the FLIPR™ technology. In these FLIPR assays, we test the identified compounds using recombinant cellular systems expressing mouse MrgprB2, mouse MrgprA1, gerbil MrgpMRGPRX2 orthologue, Chinese hamster MrgpMRGPRX2 orthologue and cynomolgus monkey MrgpMRGPRX2 orthologue, respectively for orthologue activity.
row,Compound,IC50
1,Cc1nc(NC(=O)C2CC2(C)C)ccc1Oc1ccc(F)c(F)c1 (stereo not shown) [Compound E054],0.158 µM
2,"CC1(C)C(C(=O)Nc2ccc(Oc3cncc(F)c3)nn2)C1(C)C [Compound E288, N-[6-[(5-fluoro-3-pyridyl)oxy]pyridazin-3-yl]-2,2,3,3-tetramethyl-cyclopropanecarboxamide]",9.12 µM
3,CN(CC(F)(F)F)C(=O)Nc1ccc(Oc2ccc(F)c(F)c2)cn1 [Compound E106],0.316 µM
4,CCN(C[C@@H](O)C(F)(F)F)C(=O)Nc1ccc(-c2cc(F)cc(C#N)c2)cn1 [Compound E192],1.2 µM
5,CC(C)(C#N)CC(=O)Nc1ccc(Oc2ccc(F)c(F)c2)cn1 [Compound E069],1.91 µM
6,Cn1cc(Oc2cnc(NC(=O)C3C(C)(C)C3(C)C)cn2)cn1 [Compound E221],0.0288 µM
7,CN(C[C@@](C)(O)C(F)(F)F)C(=O)Nc1cc(Oc2cccc(F)c2)ccn1 [Compound E160],0.0427 µM
8,COc1ccc(-c2ccc(NC(=O)C(C)C)nc2)cc1 [Compound E172],0.316 µM
9,CC(C)(C)C(=O)Nc1ccc(Oc2ccc(F)c(F)c2)cn1 [Compound E033],0.0794 µM
10,CCN(C[C@@H](O)C(F)(F)F)C(=O)Nc1cc(Oc2cccc(F)c2)ccn1 [Compound E154],0.00129 µM
11,COc1ccc(NC(=O)C2C(C)(C)C2(C)C)nc1 [Compound E212],0.02 µM
12,"CCN(C[C@@H](O)C(F)(F)F)C(=O)Nc1ccc(Oc2ccc(F)c(F)c2)cn1 [Compound E102, 3-[5-(3,4-difluorophenoxy)-2-pyridyl]-1-ethyl-1-[(2R)-3,3,3-trifluoro-2-hydroxy-propyl]urea]",0.0107 µM
13,"O=C(Nc1cc(Oc2cc(F)cc(F)c2)ccn1)C1CC1 [Compound E144, N-[4-(3,5-difluorophenoxy)-2-pyridyl]cyclopropanecarboxamide]",1 µM
14,CN(C[C@@H](O)C(F)(F)F)C(=O)Nc1ccc(Oc2ccc(F)c(F)c2)cn1 [Compound E111],0.0575 µM
15,"CC1(C)CCN(c2ccc(Oc3ccc(F)c(F)c3)cn2)C1=O [Compound E285, 1-[5-(3,4-difluorophenoxy)-2-pyridyl]-3,3-dimethyl-pyrrolidin-2-one]",0.257 µM
16,CCN(C[C@@H](O)C(F)(F)F)C(=O)Nc1cnc(Oc2ccc(C)cc2F)cn1 [Compound E263],0.0245 µM
17,CC(O)CN(CC(F)(F)F)C(=O)Nc1ccc(Oc2ccc(F)c(F)c2)cn1 (stereo not shown) [Compound E114],1.2 µM
18,CN(C[C@@H](O)C(F)(F)F)C(=O)Nc1cnc(Oc2ccc(F)cc2F)cn1 [Compound E255],0.0132 µM
19,O=C(Nc1ccc(Oc2ccc(F)c(F)c2)cn1)N1CCCC1 [Compound E105],7.94 µM
20,O=C(CC1CCOCC1)Nc1ccc(Oc2ccc(F)c(F)c2)cn1 [Compound E030],7.94 µM
21,CCN(C[C@@H](O)C(F)(F)F)C(=O)Nc1ccc(Oc2ccc(F)cc2F)cn1 [Compound E137],0.00209 µM
22,O=C(Nc1ccc(Oc2cc(F)cc(F)c2)cn1)N1CC[C@H](CO)C1 [Compound E133],6.17 µM
23,CN(C[C@@](C)(O)C(F)(F)F)C(=O)Nc1cnc(Oc2ccc(F)cc2F)cn1 [Compound E253],0.00389 µM

row,Compound,IC50
1,"NS(=O)(=O)N1CCC[C@@H]1C(=O)Nc1ccc(Oc2ccc(F)c(F)c2)cn1 [Compound E277, (2R)-N-[5-(3,4-difluorophenoxy)-2-pyridyl]-1-sulfamoyl-pyrrolidine-2-carboxamide]",1.91 µM
2,N#C[C@@H]1C[C@@H]1C(=O)Nc1ccc(Oc2ccc(F)c(F)c2)cn1 [Compound E047],3.16 µM
3,CC1(C)C(C(=O)Nc2ccc(Oc3ccnc(C#N)c3)cn2)C1(C)C [Compound E065],0.355 µM
4,CC(C)(C#N)C(=O)Nc1ccc(Oc2ccc(F)c(F)c2)cn1 [Compound E026],2 µM
5,"CCN(C[C@@H](O)C(F)(F)F)C(=O)Nc1cc(Oc2cc(F)cc(F)c2)ccn1 [Compound E163, 3-[4-(3,5-difluorophenoxy)-2-pyridyl]-1-ethyl-1-[(2R)-3,3,3-trifluoro-2-hydroxy-propyl]urea]",0.000575 µM
6,CC1(C)C(C(=O)Nc2ccc(-n3ccnn3)cn2)C1(C)C [Compound E090],3.39 µM
7,CC1(C)C(C(=O)Nc2ccc(-n3ccc(F)n3)cn2)C1(C)C [Compound E091],0.00813 µM
8,Cc1cnc(NC(=O)N(C)C[C@@H](O)C(F)(F)F)cc1Oc1ccc(F)c(F)c1 [Compound E153],0.245 µM
9,CCN(C[C@@H](O)C(F)(F)F)C(=O)Nc1ccc(Oc2cncc(F)c2)cn1 [Compound E110],5.13 µM
10,CC(C)C(=O)Nc1ccc(Oc2cccc(Cl)c2)cn1 [Compound E016],0.0251 µM
11,CCN(C[C@@H](O)C(F)(F)F)C(=O)Nc1cc(Oc2ccccc2F)ccn1 [Compound E151],0.00363 µM
12,CCN(C[C@@H](O)C(F)(F)F)C(=O)Nc1ccc(Oc2cc(F)cc(C#N)c2)cn1 [Compound E116],1.35 µM
13,NS(=O)(=O)N1CCC[C@@H]1C(=O)Nc1ccc(Oc2cc(F)ccc2F)cn1 [Compound E280],0.589 µM
14,CCN(C[C@@H](O)C(F)(F)F)C(=O)Nc1ccc(Oc2cc(C#N)ccc2F)cn1 [Compound E126],7.76 µM
15,CC1(C)CC1C(=O)Nc1cnc(Oc2ccc(F)c(F)c2)cn1 (stereo not shown) [Compound E225],0.0631 µM
16,CC1(C(=O)Nc2ccc(Oc3cccc(F)c3)cn2)CCOCC1 [Compound E006],3.16 µM
17,CC1(C)C(C(=O)Nc2ccc(-n3ccc(C#N)n3)cn2)C1(C)C [Compound E088],0.0282 µM
18,"CC1(C)C(C(=O)Nc2ccc(-n3cccn3)cn2)C1(C)C [Compound E199, 2,2,3,3-tetramethyl-N-(5-pyrazol-1-yl-2-pyridyl)cyclopropanecarboxamide]",0.0339 µM
19,CC1(C)C(C(=O)Nc2ccc(Oc3ccc(C#N)cc3)cn2)C1(C)C [Compound E058],0.0316 µM
20,C[C@]1(C(=O)Nc2ccc(Oc3cc(F)ccc3F)cn2)CCCN1S(N)(=O)=O [Compound E281],0.0813 µM
21,"CC(C)C(=O)Nc1cc(Oc2cc(F)cc(F)c2)ccn1 [Compound E143, N-[4-(3,5-difluorophenoxy)-2-pyridyl]-2-methyl-propanamide]",0.2 µM
22,CC1(C)C(C(=O)Nc2ccc(Oc3ccc(C#N)nc3)cn2)C1(C)C [Compound E063],1.26 µM
23,CCN(C[C@@H](O)C(F)(F)F)C(=O)Nc1ccc(Oc2ccccc2F)cn1 [Compound E122],0.0038 µM

row,Compound,IC50
1,CCN(C[C@@H](O)C(F)(F)F)C(=O)Nc1cnc(Oc2ccc(F)cc2Cl)cn1 [Compound E260],0.00407 µM
2,"CN(C[C@@](C)(O)C(F)(F)F)C(=O)Nc1ccc(Oc2ccc(F)cc2F)cn1 [Compound E141, 3-[5-(2,4-difluorophenoxy)-2-pyridyl]-1-methyl-1-[(2R)-3,3,3-trifluoro-2-hydroxy-2-methyl-propyl]urea]",0.00204 µM
3,CC1(C)C(C(=O)Nc2ccc(Nc3cncc(F)c3)cn2)C1(C)C [Compound E101],0.912 µM
4,CC(C)C(=O)Nc1ccc(Br)cn1 [Compound E202],6.31 µM
5,"CC1(C)C(C(=O)Nc2ccc(CN3CCCC3)cn2)C1(C)C [Compound E270, 2,2,3,3-tetramethyl-N-[5-(pyrrolidin-1-ylmethyl)-2-pyridyl]cyclopropanecarboxamide]",5.25 µM
6,O=C(Nc1ccc(Oc2cccc(F)c2)cn1)C1(C(F)(F)F)CC1 [Compound E012],0.398 µM
7,CC1(C)CCN1C(=O)Nc1ccc(Oc2ccc(F)c(F)c2)cn1 [Compound E125],0.468 µM
8,CCN(C[C@@H](O)C(F)(F)F)C(=O)Nc1cc(Oc2cccc(C#N)c2)ccn1 [Compound E156],1.55 µM
9,Cn1cc(Oc2ccc(NC(=O)C3C(C)(C)C3(C)C)nc2)cn1 [Compound E073],0.00363 µM
10,"CCN(C[C@@H](O)C(F)(F)F)C(=O)Nc1ccc(-c2ncco2)cn1 [Compound E197, 1-ethyl-3-(5-oxazol-2-yl-2-pyridyl)-1-[(2R)-3,3,3-trifluoro-2-hydroxy-propyl]urea]",3.09 µM
11,CN(C[C@@](C)(O)C(F)(F)F)C(=O)Nc1cnc(Oc2cc(F)cc(F)c2)cn1 [Compound E238],0.0457 µM
12,Cc1cnc(NC(=O)C2C(C)(C)C2(C)C)cn1 [Compound E213],1.58 µM
13,CN(C[C@@H](O)C(F)(F)F)C(=O)Nc1cnc(Oc2cc(F)ccc2F)cn1 [Compound E245],0.00851 µM
14,C[C@@H](C(=O)Nc1ccccn1)c1ccccc1 [Compound E210],2 µM
15,CCN(C[C@@H](O)C(F)(F)F)C(=O)Nc1cnc(-c2cc(F)ccc2F)cn1 [Compound E237],0.603 µM
16,CC(C)C(=O)Nc1ccc(Oc2cccc(C#N)c2)cn1 [Compound E018],6.31 µM
17,"CC(C)C(=O)Nc1ccc(-c2ccccc2)cn1 [Compound E164, 2-methyl-N-(5-phenyl-2-pyridyl)propanamide]",0.251 µM
18,O=C(Nc1ccc(Oc2ccc(F)c(F)c2)cn1)[C@H]1C[C@H]1C(F)(F)F [Compound E045],0.02 µM
19,CC(C)C(=O)Nc1ccc(-c2cc(F)cc(C#N)c2)cn1 [Compound E174],0.1 µM
20,CCN(C[C@@H](O)C(F)(F)F)C(=O)Nc1ccc(Oc2cc(F)ccc2C#N)cn1 [Compound E129],1.95 µM
21,O=C(Nc1ccc(Oc2ccc(F)c(F)c2)cn1)[C@H]1C[C@@H]1C(F)(F)F [Compound E049],0.0251 µM
